Assay [1] deals with Rattus norvegicus. In words: Inhibition of ADP-induced platelet aggregation in Wistar rat blood at 10 mg/kg, po after 2 hrs by aggregometer analysis relative to vehicle-treated control.
Assay [2] has as its system Rattus norvegicus. In words: Inhibition of ADP-induced platelet aggregation in Wistar rat blood at 10 mg/kg, po after 5 mins by aggregometer analysis relative to vehicle-treated control.

Consider `[3H]C1([3H])c2sccc2CN(C(C(=O)OC)c2ccccc2Cl)C1([3H])[3H]` (stereo not drawn), for which the aggregation at 10 mg/kg was found to be 49.1% in assay [1] and 7.3% in assay [2].
The like results for `[3H]C1([3H])c2ccsc2C([3H])([3H])C([3H])([3H])N1C(C(=O)OC)c1ccccc1Cl` (stereo not drawn) were, in that order, 50.6% and 7%.
The like results for `[3H]C1([3H])c2ccsc2CCN1C(C(=O)OC)c1ccccc1Cl` (stereo not drawn) were, in that order, 50.4% and 12.9%.
With `COC(=O)C(c1ccccc1Cl)N1CCc2sccc2C1` (stereo not drawn), the aggregation at 10 mg/kg in assay [1] was determined as 60.4%; in assay [2] it was 29.4%.

Values taken from ChEMBL document CHEMBL2331123, “Deuterated clopidogrel analogues as a new generation of antiplatelet agents” (ACS Med Chem Lett, 2013).
